Data published in patent US4012387A, “Benzo-[g]pyrido[2,1-b]quinazolinones” (Warner-Lambert Company, priority 1975, dated 1977).
Like-named read-outs stand apart in the source and are kept apart here.

Test system: rat passive cutaneous anaphylaxis
Assay: rat passive cutaneous anaphylaxis test (PCA), procedure of Herzig
Format: in vivo
Source text: Mansmann, Eds., John Wiley and Son, N.Y., 1975].
Effective dose 50% inhibition rat passive cutaneous anaphylaxis

[1] = effective dose 50% inhibition, rat PCA, intravenous, read-out: ED50 -PCA (rat) iv.

| Structure (SMILES) | ED50 [1] | ED50 (effective dose 50% inhibition, rat PCA, oral, read-out: ED50 -PCA (rat) po.) | effectiveness compared with the commercial compound (Intal), i.v. administration (i.v., rat PCA, comparison in words) | activity in rat PCA when given intraperitonially (intraperitoneal, result in words) | ED50 (ip, effective dose 50% inhibition, rat PCA, intraperitoneal, read-out: ED50 -PCA (rat) ip.) | activity in rat PCA when given orally (oral, result in words) | ED50 -PCA (rat) ip. (effective dose 50% inhibition, rat PCA, intraperitoneal) | ED50 -PCA (rat) po. (effective dose 50% inhibition, rat PCA, oral) |
| --- | --- | --- | --- | --- | --- | --- | --- | --- |
| O=C(O)c1ccc2nc3cc4ccccc4cc3c(=O)n2c1 [Example 1, 6-oxo-6H-benzo[g]pyrido[2,1-b]quinazoline-3-carboxylic acid] | 0.015 mg/kg | < 0.1 mg/kg | many times as effective | active | 0.015 mg/kg | active | – | – |
| O=C(O)c1cc(=O)c2c(OCC(O)COc3cccc4oc(C(=O)O)cc(=O)c34)cccc2o1 [Intal, Cromoglycate, reference compound] | 1 to 2 mg/kg | – | – | – | – | – | inactive | inactive |
